We go through 86 molecules from ChEMBL document CHEMBL3988442, “University of Dundee, Small-Polar-MMV Screening Library” (2021).

Where only a bound is given, the exact number is not on record here.

Assay [1] can be described thus: microbe, parasite or virus in culture. As to conditions: Mycobacterium tuberculosis, 96 h, read-out: pIC50 (converted).
Assay [2] in a line: microbe, parasite or virus in culture. As to conditions: Mycobacterium tuberculosis, 72 h, read-out: pIC50 (converted).

Take `O=C(COC(=O)c1cccs1)NCc1ccco1`: the IC50 is over 501 µM in assay [1] and 204 µM in assay [2].

Consider `Nc1nnc(SCc2ccccc2F)s1`, for which the IC50 was 157 µM in assay [1] and 248 µM in assay [2].

On to `Cc1nn(CC(=O)N(C)C)c(=O)c2ccccc12`, for which the IC50 in assay [1] and in assay [2] was over 501 µM in each case.

For the molecule `COc1cccc(OCC(=O)NCC2CCCO2)c1` (configuration not stated), the IC50 in assay [1] was 145 µM; in assay [2] it was 194 µM.

Consider `O=C(CCc1ccccc1)N1CCCNCC1`, for which the figures for the IC50 in assay [1] and in assay [2] were over 501 µM and 192 µM, respectively.

With `OCCC1CCN(Cc2ccccc2)C1` (configuration not stated), the IC50 in assay [1] and in assay [2] was over 501 µM each time.

Regarding `CC1CCN(C(CN)c2cccs2)CC1` (configuration not stated), the IC50 in assay [1] is 263 µM; in assay [2] it was 217 µM.

Turning to `c1ccc(NCCNc2ccccn2)cc1`, the IC50 was 217 µM in assay [1] and 230 µM in assay [2].

As for `CN(C)c1ccc(CNC(=O)C2CCCO2)cc1` (configuration not stated), the figures for the IC50 in assay [1] and in assay [2] were 197 µM and 219 µM, respectively.

For the molecule `CNCc1nc(C(F)(F)F)no1`, the IC50 in assay [1] and in assay [2] was over 501 µM in each case.

Take `COc1cccc(CNc2nc(C)no2)c1`: the IC50 in assay [1] is over 501 µM; in assay [2] it was 180 µM.

Regarding `NCc1cccc(S(=O)(=O)NCc2cccc(F)c2)c1`, the IC50 is over 501 µM in assay [1] and 232 µM in assay [2].

In the case of `CN(C)C(=O)COC(=O)c1ccc2ccccc2n1`, the results for the IC50 in assay [1] and in assay [2] were over 501 µM and 142 µM, respectively.

For the molecule `Cc1ccc(-n2nnnc2NCC2CCCO2)cc1` (configuration not stated), the IC50 was 119 µM in assay [1] and 113 µM in assay [2].

As to `Cc1cc(NC(C)c2ccco2)nc(N)n1` (configuration not stated), the IC50 in assay [1] and in assay [2] was over 501 µM in each case.

Regarding `c1cc2c(cc1CNc1nnc(C3CC3)o1)OCCO2`, the IC50 was 179 µM in assay [1] and 151 µM in assay [2].

`CC1CCN(S(=O)(=O)NC(C)C(C)C)CC1` (configuration not stated): the IC50 in assay [1] was over 501 µM; in assay [2], 261 µM.

With `CCC(NC(=O)NCCCOC)C(C)C` (configuration not stated), the IC50 in assay [1] and in assay [2] was over 501 µM each time.

Regarding `CCCN(C)S(=O)(=O)NC(C)c1ccc(OC)c(F)c1` (configuration not stated), the figures for the IC50 in assay [1] and in assay [2] were 163 µM and 153 µM, respectively.

With `CN(C)C(=O)c1csc(-c2ccccc2)n1`, the IC50 in assay [1] and in assay [2] was over 501 µM throughout.

For the molecule `COCCN1CCCC(Nc2ccc(Cl)cn2)C1` (configuration not stated), the IC50 in assay [1] was 172 µM; in assay [2], 145 µM.

Take `CN(c1ccc(F)cc1)S(=O)(=O)N1CCCCC1`: the IC50 in assay [1] is 267 µM; in assay [2] it was 204 µM.

`CSCc1cccc(CNC(=O)c2cc[nH]n2)c1`: the results for the IC50 in assay [1] and in assay [2] were over 501 µM and 308 µM, respectively.

For `COc1ccc2c(c1)NCC(C)O2` (configuration not stated), the IC50 in assay [1] was 214 µM; in assay [2], 94.8 µM.

For the molecule `Nc1nccnc1C(=O)NCc1cc(Br)cs1`, the IC50 in assay [1] was 132 µM; in assay [2], 93.5 µM.

Consider `COc1cn(-c2ccccc2)nc1C(=O)NCC(C)C`, for which the IC50 was 294 µM in assay [1] and 282 µM in assay [2].

In the case of `CN1CCCN(Cc2cc(F)cc(F)c2)CC1=O`, the IC50 in assay [1] was 211 µM; in assay [2], 169 µM.

`COc1ccc(CNc2ccncc2F)cc1C#N`: the IC50 in assay [1] and in assay [2] was over 501 µM throughout.

As to `CC(C)CC(NC(N)=O)C(=O)Nc1cc(F)cc(F)c1` (configuration not stated), the IC50 was over 501 µM in assay [1] and 239 µM in assay [2].

On to `O=C(CSc1cnn[nH]1)OCc1ccccc1`, for which the figures for the IC50 in assay [1] and in assay [2] were over 501 µM and 67.9 µM, respectively.

In the case of `CN(CCN1CCCC1)S(=O)(=O)c1ccccc1`, the values for the IC50 in assay [1] and in assay [2] were over 501 µM and 208 µM, respectively.

As for `NCC(c1cccs1)N1CCCC1` (configuration not stated), the IC50 in assay [1] was 494 µM; in assay [2], 156 µM.

Regarding `COc1ccc(C2CCN(CC(=O)NC(N)=O)C2)cc1` (configuration not stated), the IC50 in assay [1] and in assay [2] was over 501 µM each time.

Turning to `NCCNS(=O)(=O)c1ccc(-c2ccccc2)cc1`, the IC50 in assay [1] was 171 µM; in assay [2], 160 µM.

Consider `N#Cc1cccnc1N1CCOC(c2nccs2)C1` (configuration not stated), for which the IC50 is over 501 µM in assay [1] and 138 µM in assay [2].

In the case of `NC(=O)c1ccsc1NC(=O)CCN1CCCC1`, the results for the IC50 in assay [1] and in assay [2] were 248 µM and 204 µM, respectively.

For the molecule `CN(Cc1cccc(C#N)c1)C(=O)C1CC1`, the IC50 in assay [1] was 133 µM; in assay [2], over 501 µM.

As for `CNCC(=O)Nc1cc(Cl)c(OCCOC)c(Cl)c1`, the IC50 in assay [1] and in assay [2] was over 501 µM throughout.

`Cc1nn(CCO)c(NCc2cccc(F)c2)c1C`: the IC50 in assay [1] and in assay [2] was over 501 µM throughout.

Turning to `COCCCOC1CN(C(=O)c2ccc(Cl)cn2)C1`, the IC50 in assay [1] was 84.6 µM; in assay [2], 2.73 µM.

In the case of `NCc1ccc(NC(=O)c2ccccc2O)cc1`, the IC50 in assay [1] is over 501 µM; in assay [2] it was 159 µM.

As to `N[C@H]1CC[C@H](Oc2ncccc2Cl)CC1`, the IC50 in assay [1] was over 501 µM; in assay [2], 125 µM.

With `NCc1ccnc(OCC(F)(F)F)c1`, the IC50 in assay [1] is 88.7 µM; in assay [2] it was 50 µM.

As for `O=C(NCCSCc1cccc(Cl)c1)C1CNCCO1` (configuration not stated), the figures for the IC50 in assay [1] and in assay [2] were 259 µM and 266 µM, respectively.

Regarding `CNCc1nc2c(s1)CCCC2`, the IC50 in assay [1] is 259 µM; in assay [2] it was 221 µM.

As for `Cc1nc(COc2ccc(C(=O)OCC#N)cc2)no1`, the IC50 in assay [1] and in assay [2] was over 501 µM in each case.

Take `OCC(O)CSCc1ncc(-c2cccc(Cl)c2)o1` (configuration not stated): the IC50 in assay [1] was over 501 µM; in assay [2], 211 µM.

On to `CC(C)NC(=O)c1ccc(N2CCCCC2=O)cc1`, for which the IC50 in assay [1] and in assay [2] was over 501 µM each time.

As for `CCOCC(O)CSc1nccn1-c1cccc(F)c1` (configuration not stated), the IC50 in assay [1] was 290 µM; in assay [2], 189 µM.

Consider `c1csc(CSCCNC2=NCCN2)c1`, for which the IC50 in assay [1] and in assay [2] was over 501 µM in each case.

Consider `COc1ccc(CSCC(N)=O)cc1Br`, for which the IC50 in assay [1] was 262 µM; in assay [2], 241 µM.

For the molecule `O=C(C1Cc2cc(Cl)ccc2O1)N1CCOCC1` (configuration not stated), the IC50 in assay [1] and in assay [2] was over 501 µM in each case.

For `CCCC(=O)Nc1cc(C(=O)OC)cc(C(=O)OC)c1`, the IC50 in assay [1] is over 501 µM; in assay [2], 249 µM.

With `CCC(O)CN1CCN(c2ncccc2Br)CC1` (configuration not stated), the IC50 in assay [1] and in assay [2] was over 501 µM in each case.

For `CN(Cc1ccc(Br)cc1)C(=O)CSc1nc(N)n[nH]1`, the IC50 is over 501 µM in assay [1] and 152 µM in assay [2].

For the molecule `C[C@H](c1ccc(Cl)cc1)n1c(CCN)n[nH]c1=O`, the IC50 in assay [1] is over 501 µM; in assay [2], 38.3 µM.

With `NC1CCN(c2ncc(C(F)(F)F)cc2Cl)C1` (configuration not stated), the IC50 was 83.4 µM in assay [1] and 123 µM in assay [2].

Regarding `COc1cc(OC)cc(N2CCC(N)C2)c1` (configuration not stated), the IC50 is 213 µM in assay [1] and 232 µM in assay [2].

For `COc1ccnc(CN2CCCC2CSC)c1OC` (configuration not stated), the IC50 in assay [1] is over 501 µM; in assay [2], 180 µM.

Regarding `Fc1ccc(NCC2CCC3(CC2)OCCO3)nc1`, the IC50 in assay [1] is 205 µM; in assay [2], 264 µM.

For the molecule `N#Cc1cccnc1N1CCCNCC1`, the IC50 in assay [1] was over 501 µM; in assay [2] it was 480 µM.

For the molecule `COc1ccc(NC(=O)NC(C)(C)C(C)(C)O)cc1`, the IC50 in assay [1] was over 501 µM; in assay [2], 186 µM.

In the case of `Cn1cc(Br)cc1C(=O)NCC1CCCO1` (configuration not stated), the IC50 in assay [1] was over 501 µM; in assay [2], 225 µM.

Regarding `CC1CCN(C(=O)c2cnn(-c3cccnc3)c2)CC1`, the values for the IC50 in assay [1] and in assay [2] were 67.4 µM and 307 µM, respectively.

Consider `COc1ccccc1CC(=O)Nc1ncc(C(N)=O)s1`, for which the IC50 in assay [1] and in assay [2] was over 501 µM throughout.

For `CC1CCCCN1S(=O)(=O)N1CCNCC1` (configuration not stated), the IC50 in assay [1] and in assay [2] was over 501 µM throughout.

Regarding `Cc1cccc(NCCNC(=O)c2ccccc2)n1`, the IC50 in assay [1] and in assay [2] was over 501 µM in each case.

Take `CN(C)C(=O)c1cc(-c2cccs2)on1`: the IC50 in assay [1] was 254 µM; in assay [2] it was over 501 µM.

Consider `CS(=O)(=O)NCc1ccnc(Oc2ccc(F)cc2)c1`, for which the IC50 was over 501 µM in assay [1] and 154 µM in assay [2].

For the molecule `Cn1cc(Cn2nc(-c3ccco3)oc2=O)cn1`, the IC50 in assay [1] was over 501 µM; in assay [2], 187 µM.

Turning to `CC(C)CC(O)CNC(=O)c1cc(F)ccc1F` (configuration not stated), the IC50 is 57.2 µM in assay [1] and 238 µM in assay [2].

As for `Cc1[nH]ncc1C(=O)NCCCSCC(C)C`, the IC50 was over 501 µM in assay [1] and 102 µM in assay [2].

In the case of `CN(CCC#N)C(=O)COC(=O)c1ccccc1Br`, the IC50 is over 501 µM in assay [1] and 139 µM in assay [2].

Take `O=C1C=CC(=O)N1Cc1ccc(Cl)cc1`: the figures for the IC50 in assay [1] and in assay [2] were 174 µM and 129 µM, respectively.

With `Cc1noc(C)c1CNC(=O)c1csc(S(N)(=O)=O)c1`, the IC50 in assay [1] and in assay [2] was over 501 µM in each case.

For `COc1ccc(OCCSCC(=O)NCCC#N)cc1`, the values for the IC50 in assay [1] and in assay [2] were 288 µM and 195 µM, respectively.

As for `CC(C)(C)OC(=O)N1CCCC1CN` (configuration not stated), the IC50 in assay [1] was 207 µM; in assay [2] it was 368 µM.

Turning to `CC(NC(=O)CSc1nc(=O)[nH]n1C)c1cccs1` (configuration not stated), the IC50 in assay [1] was 234 µM; in assay [2], 175 µM.

On to `COCC(C)Oc1cc(C)ccc1CN` (configuration not stated), for which the IC50 in assay [1] was 228 µM; in assay [2], 149 µM.

Turning to `CC(NC(=O)CCNC(=O)c1ccco1)c1cccs1` (configuration not stated), the IC50 in assay [1] and in assay [2] was over 501 µM each time.

With `COc1cccc(CN(C)C(=O)c2occc2C)n1`, the figures for the IC50 in assay [1] and in assay [2] were 279 µM and 188 µM, respectively.

As for `CCCc1noc(C(C)Nc2cccc(C(N)=O)c2)n1` (configuration not stated), the IC50 was 156 µM in assay [1] and 56.4 µM in assay [2].

Regarding `NCCNS(=O)(=O)c1cccc(I)c1`, the IC50 was over 501 µM in assay [1] and 326 µM in assay [2].

As to `CN(C)S(=O)(=O)N1CCC(Oc2ccccc2Cl)CC1`, the IC50 was 232 µM in assay [1] and 343 µM in assay [2].

As for `COc1cccc(CNc2ccccc2CO)n1`, the IC50 in assay [1] and in assay [2] was over 501 µM in each case.

Regarding `Cc1ccccc1N1C(=O)C=CC1=O`, the IC50 was 254 µM in assay [1] and 157 µM in assay [2].
